Assay results as given in patent US9376469B2, “Proteolytically resistant hydrogen bond surrogate helices” (New York University, priority 2011, dated 2016).
Square brackets hold non-standard residues; d marks the D form. Peptide text beside a SMILES is read from it. * marks the point of attachment. X1 = NC(=O)CC[C@@H]1NC(=O)CCC=CCN(CCC(=O)*)C(=O)[C@H](CCC(=O)O)NC1=O; β3hL = CC(C)C[C@H](N)CC(=O)O; β3hA = C[C@H](N)CC(=O)O

Tests used:
serum proteases = test: Serum stability assay; format: in vitro ADME; settings: 25% human serum in RPMI, 37° C., after 24 hours, LCMS
Protocol: Peptides and 50% human serum (Sigma, St Louis, Mo., USA; product number S7023) in RPMI were temperature-equilibrated to 37° C. for 15 minutes prior to the experiments. […] After 0, 2, 5, 10, and 24 hours, three samples of each peptide (50 μl) were taken, and were precipitated by the addition of 100 μl of 6% aqueous trichloroacetic acid. The samples were cooled to 4° C. for 20 minutes and centrifuged (14000 rpm for 5 minutes). The supernatants were immediately frozen on dry ice and 100 μl of each were analyzed on an Agilent LCMS using 0.1% formic acid in water (eluent A) and 0.1% formic acid in acetonitrile (eluent B). The level of intact peptide was determined by comparing the LC % area of the peptide peak at different time points to the % area of the O-hour peak.
Human serum contains a myriad of proteases and provides a gauge for the stability of compounds under physiological conditions.

trypsin = test: Trypsin digestion assay; format: in vitro ADME; settings: 1 ng/μL trypsin, 4° C.
Protocol: A solution containing 500 μM of tryptophan, 1 ng/μL of trypsin, and 500 μM of peptide in PBS was incubated at 4° C. At the indicated time intervals, 100 μL of this solution was quenched with 100 μL of 2% aqueous TFA, and then injected into reversed-phase HPLC to analyze the change in the area of the peptide peak compared to the area of an internal control (tryptophan).
Trypsin was chosen as the model proteolytic enzyme because the p53 activation domain contains a lysine group near the C-terminus, providing a cleavage site for this enzyme. […] The rate of peptide digestion was measured using an LCMS assay with tryptophan as an internal control.

[1] = molecular target: T1, His6-tagged Mdm2 (25-117) (Homo sapiens, UniProt Q00987); test: Fluorescence polarization-based competitive binding assay with Flu-p53; settings: for Kd: read-out: KD (binding constant for His6-Mdm2); for Binding to Mdm2, result in words: negative control peptides
T1 construct: made in house; host or cells: E. coli BL21 DE3 pLySS, pET-14B vector

HeLa cells = test: Cellular uptake assay, confocal microscopy of live cells; format: cell-based; settings: 15 μM fluorescein-tagged peptide, 2 hours, 37° C.
Protocol: HeLa cells were cultured to sub-confluence in DMEM (Invitrogen) supplemented with 10% (v/v) fetal bovine serum (FBS) at 37° C. in a humidified incubator containing 5% CO2. Cells (˜1×10^4 cells/ml) in DMEM supplemented with 10% FBS were plated onto a 24-well culture plate containing microscope cover slides. After overnight incubation, cells were washed three times with 1 ml HBSS (Invitrogen) and supplemented with 15 μM fluorescein-tagged peptides in 1 mM PBS (pH 7.4) to a total volume of 500 μl. Peptide treated cells were incubated for another 2 hours at 37° C., washed five times with 500 μl HBSS, and imaged directly on a Leica TSC SP 2 laser scanning confocal microscope. Twenty serial 1 μm Z-section images through the middle of the cells were collected and analyzed.
It is likely that cellular uptake of HBS helices will have sequence dependence; however, it is noteworthy that peptides with an overall negative charge are internalized (Patgiri et al., Nat. Chem. Biol. 7:585 (2011), which is hereby incorporated by reference in its entirety), as positive charge is often associated with enhanced cellular uptake of peptides (Henchey et al., J. Am. Chem. Soc'y 132:941 (2010); Bernal et al., J. Am. Chem. Soc'y 129:2456 (2007); Wender et al., Proc. Nat'l Acad. Sci. USA 97:13003 (2000), each of which is hereby incorporated by reference in its entirety).

Molecule	Kd [1] [µM]	Binding to Mdm2, result in words [1]	further results
CC(C)C[C@@H](CC(=O)N[C@@H](CC(C)C)C(=O)N[C@@H](CO)C(N)=O)NC(=O)[C@H](CCCCN)NC(=O)[C@H](Cc1c[nH]c2ccccc12)NC(=O)[C@H](CC(C)C)NC(=O)C[C@H](CC(=O)O)NC(=O)[C@H](CO)NC(=O)[C@H](Cc1ccccc1)NC(=O)CN1CC=CCCC(=O)N[C@@H](CCC(N)=O)C(=O)N[C@@H](CCC(=O)O)CC1=O [Peptide 1, XQeG*FSdLWKILS-NH2 (SEQ ID NO: 5)]			Stability in human serum, in words (serum proteases): remained unperturbed; metabolised at 24 h, 500 μM (trypsin; trypsin (isolated protease) in PBS, after 24 hours, 500 μM peptide, read-out: Peptide cleaved by trypsin): ~20%
CC(=O)N[C@@H](CCC(N)=O)C(=O)N[C@@H](CCC(=O)O)CC(=O)NCC(=O)N[C@@H](Cc1ccccc1)C(=O)N[C@@H](CO)C(=O)N[C@@H](CC(=O)O)CC(=O)N[C@@H](CC(C)C)C(=O)N[C@@H](Cc1c[nH]c2ccccc12)C(=O)N[C@@H](CCCCN)C(=O)N[C@H](CC(=O)N[C@@H](CC(C)C)C(=O)N[C@@H](CO)C(N)=O)CC(C)C [Peptide 3, Ac-QeGFSdLWKILS-NH2 (SEQ ID NO: 7)]			Stability toward trypsin degradation, in words (trypsin; PBS): stable toward degradation
CC(=O)N[C@@H](CCC(N)=O)C(=O)N[C@H]1CCC[C@@H]1C(=O)NCC(=O)N[C@@H](Cc1ccccc1)C(=O)N[C@@H](CO)C(=O)N[C@H]1CCC[C@@H]1C(=O)N[C@@H](CC(C)C)C(=O)N[C@@H](Cc1c[nH]c2ccccc12)C(=O)N[C@@H](CCCCN)C(=O)N[C@H]1CCC[C@@H]1C(=O)N[C@@H](CC(C)C)C(=O)N[C@@H](CO)C(N)=O [Peptide 4, Ac-Q(ACPC)GFS(ACPC)LWK(ACPC)LS-NH2 (SEQ ID NO: 8)]	0.43 ± 0.086		Affinity for Mdm2 as compared to peptide 1 ([1]; relative to peptide 1): roughly five-fold lower affinity
CC(C)C[C@@H](CC(=O)N[C@@H](Cc1c[nH]c2ccccc12)C(=O)N[C@@H](CCCCN)C(=O)N[C@@H](CC(C)C)C(=O)N[C@@H](C)CC(=O)N[C@@H](CO)C(N)=O)NC(=O)[C@H](CC(=O)O)NC(=O)[C@H](CO)NC(=O)[C@H](C)NC(=O)CCN1CC=CCCC(=O)N[C@@H](CCC(N)=O)C(=O)N[C@@H](CCC(=O)O)C1=O [Peptide 4-9, XQEg*ASDIWKLaS-NH2 (SEQ ID NO: 16)] (X1-ASD[β3hL]WKL[β3hA]S-NH2)	> 1000	does not bind with any appreciable binding affinity	
CC(C)C[C@@H](CC(=O)N[C@@H](C)C(=O)N[C@@H](CO)C(N)=O)NC(=O)[C@H](CCCCN)NC(=O)[C@H](Cc1c[nH]c2ccccc12)NC(=O)[C@H](CC(C)C)NC(=O)C[C@H](CC(=O)O)NC(=O)[C@H](CO)NC(=O)[C@H](C)NC(=O)CN1CC=CCCC(=O)N[C@@H](CCC(N)=O)C(=O)N[C@@H](CCC(=O)O)CC1=O [Peptide 5, XQeG*ASdLWKIAS-NH2 (SEQ ID NO: 9)]	> 1000	does not bind to Mdm2 with measurable affinity	
XQeG*FSdLWKILSC^Flu-NH2 (SEQ ID NO: 11) [Flu-1]			Cellular uptake (intracellular fluorescence) (HeLa cells): intense intracellular fluorescence
